According to ChEMBL document CHEMBL5050844 (2019):
pIC50, pKd: −log10 of the molar value.

Experiments:
[1] = target: T1, E3 ubiquitin-protein ligase CBL-B (Homo sapiens, UniProt Q13191); experiment: Inhibition of N-terminal Avi-tagged human CBL-B (36 to 427 residues) incubated with 60 nM Src kinase for 1.5 hrs followed by incubation with fluorescently labeled UbcH5B-Ub for 1 hr and measured by TR-FRET assay; assay type: single protein
[2] = Induction of anti-CD3/CD28 antibodies-stimulated human T cell activation at 1 uM assessed fold increase in IL-2 secretion measured by ELISA assay; assay type: functional, T cell line
[3] = Induction of anti-CD3/CD28 antibodies-stimulated human CD4+ T cell activation at 1.11 uM assessed fold increase in CD69 expression measured by flow cytometry analysis; assay type: functional, T cell line
[4] = Induction of anti-CD3/CD28 antibodies-stimulated human CD8+ T cell activation at 10 uM assessed fold increase in CD69 expression measured by flow cytometry analysis; assay type: functional, T cell line
[5] = Induction of anti-CD3 antibodies-stimulated human CD8+ T cell activation at 10 uM assessed fold increase in cell proliferation measured by flow cytometry analysis; assay type: functional, T cell line; note: reference of the scale not given here
[6] = Induction of anti-CD3 antibodies-stimulated human CD8+ T cell activation at 1.11 uM assessed fold increase in cell proliferation measured by flow cytometry analysis; assay type: functional, T cell line; note: reference of the scale not given here
[7] = Induction of anti-CD3/CD28 antibodies-stimulated human T cell activation at 1.11 uM assessed fold increase in GM-CSF secretion measured by ELISA assay; assay type: functional, T cell line
[8] = Induction of anti-CD3/CD28 antibodies-stimulated human T cell activation at 10 uM assessed fold increase in TNF-alpha secretion measured by ELISA assay; assay type: functional, T cell line
[9] = Induction of anti-CD3/CD28 antibodies-stimulated human T cell activation at 1.11 uM assessed fold increase in TNF-alpha secretion measured by ELISA assay; assay type: functional, T cell line
[10] = Induction of anti-CD3 antibodies-stimulated human T cell activation at 10 uM assessed fold increase in TNF-alpha secretion measured by ELISA assay; assay type: functional, T cell line; note: reference of the scale not given here
[11] = Induction of anti-CD3 antibodies-stimulated human T cell activation at 1.11 uM assessed fold increase in TNF-alpha secretion measured by ELISA assay; assay type: functional, T cell line; note: reference of the scale not given here
[12] = Induction of anti-CD3 antibodies-stimulated human exhausted CD8+ T cell activation assessed fold increase in CTLA4 expression measured by flow cytometry analysis; assay type: functional, T cell line; note: reference of the scale not given here
[13] = Induction of anti-CD3/CD28 antibodies-stimulated human anergic T cell activation at 0.37 uM assessed fold increase in IFN-gamma secretion measured by ELISA assay; assay type: functional, T cell line
[14] = Induction of activation of human CD56+ CD3- NK cells co-cultured with human K562 cells in 5:1 ratio and assessed as increase in IFN-gamma secretion at 10 uM measured by ELISA assay; assay type: functional, Natural killer cell
[15] = Induction of activation of human CD56+ CD3- NK cells co-cultured with human K562 cells in 5:1 ratio and assessed as increase in IFN-gamma secretion at 1 uM measured by ELISA assay; assay type: functional, Natural killer cell
[16] = Induction of activation of human CD56+ CD3- NK cells co-cultured with human K562 cells in 1:1 ratio and assessed as increase in IFN-gamma secretion at 1 uM measured by ELISA assay; assay type: functional, Natural killer cell
[17] = Induction of activation of human CD56+ CD3- NK cells co-cultured with human K562 cells in 5:1 ratio and assessed as increase in TNF-alpha secretion at 10 uM measured by ELISA assay; assay type: functional, Natural killer cell
[18] = Induction of activation of human CD56+ CD3- NK cells co-cultured with human K562 cells in 5:1 ratio and assessed as increase in TNF-alpha secretion at 1 uM measured by ELISA assay; assay type: functional, Natural killer cell
[19] = Induction of activation of human CD56+ CD3- NK cells co-cultured with human K562 cells in 1:1 ratio and assessed as increase in TNF-alpha secretion at 10 uM measured by ELISA assay; assay type: functional, Natural killer cell
[20] = Induction of activation of human CD56+ CD3- NK cells co-cultured with human K562 cells in 1:1 ratio and assessed as increase in TNF-alpha secretion at 1 uM measured by ELISA assay; assay type: functional, Natural killer cell
[21] = Induction of activation of human CD56+ CD3- NK cells co-cultured with human K562 cells in 5:1 ratio and assessed as increase in MIP1beta secretion at 10 uM measured by ELISA assay; assay type: functional, Natural killer cell
[22] = Induction of activation of human CD56+ CD3- NK cells co-cultured with human K562 cells in 5:1 ratio and assessed as increase in MIP1beta secretion at 1 uM measured by ELISA assay; assay type: functional, Natural killer cell
[23] = Induction of activation of human CD56+ CD3- NK cells co-cultured with human K562 cells in 1:1 ratio and assessed as increase in MIP1beta secretion at 10 uM measured by ELISA assay; assay type: functional, Natural killer cell
[24] = Induction of activation of human CD56+ CD3- NK cells co-cultured with human K562 cells in 1:1 ratio and assessed as increase in MIP1beta secretion at 1 uM measured by ELISA assay; assay type: functional, Natural killer cell
[25] = Induction of activation of human CD56+ CD3- NK cells co-cultured with human K562 cells in 1:1 ratio and assessed as increase in IFN-gamma secretion at 2.5 uM measured by ELISA assay; assay type: functional, Natural killer cell
[26] = target: T1, E3 ubiquitin-protein ligase CBL-B; experiment: Binding affinity towards N-terminal biotinylated Avi-tagged human CBL-B (36 to 427 residues) measured by surface plasmon resonance assay
[27] = Induction of anti-CD3 antibodies-stimulated human CD4+ T cell activation in immunocompetent mouse assessed fold increase in CD25 expression at 90 mg/kg, ip administered twice a day; assay type: functional; note: reference of the scale not given here
[28] = Induction of anti-CD3 antibodies-stimulated human CD4+ T cell activation in immunocompetent mouse assessed fold increase in CD25 expression at 90 mg/kg, po administered twice a day; assay type: functional; note: reference of the scale not given here
[29] = Induction of anti-CD3 antibodies-stimulated human CD4+ T cell activation in immunocompetent mouse assessed fold increase in CD25 expression at 135 mg/kg, po administered twice a day; assay type: functional; note: reference of the scale not given here
[30] = Induction of anti-CD3 antibodies-stimulated human CD4+ T cell activation in immunocompetent mouse assessed fold increase in CD25 expression at 180 mg/kg, po administered twice a day; assay type: functional; note: reference of the scale not given here
[31] = Induction of anti-CD3 antibodies-stimulated human CD8+ T cell activation in immunocompetent mouse assessed fold increase in CD25 expression at 90 mg/kg, ip administered thrice a day; assay type: functional; note: reference of the scale not given here
[32] = Induction of anti-CD3 antibodies-stimulated human CD8+ T cell activation in immunocompetent mouse assessed fold increase in CD25 expression at 90 mg/kg, po administered twice a day; assay type: functional; note: reference of the scale not given here
[33] = Induction of anti-CD3 antibodies-stimulated human CD8+ T cell activation in immunocompetent mouse assessed fold increase in CD25 expression at 135 mg/kg, po administered twice a day; assay type: functional; note: reference of the scale not given here
[34] = Induction of anti-CD3 antibodies-stimulated human CD8+ T cell activation in immunocompetent mouse assessed fold increase in CD25 expression at 180 mg/kg, po administered twice a day; assay type: functional; note: reference of the scale not given here

T1 sequence (Q13191 whole entry, the tested form may be a part): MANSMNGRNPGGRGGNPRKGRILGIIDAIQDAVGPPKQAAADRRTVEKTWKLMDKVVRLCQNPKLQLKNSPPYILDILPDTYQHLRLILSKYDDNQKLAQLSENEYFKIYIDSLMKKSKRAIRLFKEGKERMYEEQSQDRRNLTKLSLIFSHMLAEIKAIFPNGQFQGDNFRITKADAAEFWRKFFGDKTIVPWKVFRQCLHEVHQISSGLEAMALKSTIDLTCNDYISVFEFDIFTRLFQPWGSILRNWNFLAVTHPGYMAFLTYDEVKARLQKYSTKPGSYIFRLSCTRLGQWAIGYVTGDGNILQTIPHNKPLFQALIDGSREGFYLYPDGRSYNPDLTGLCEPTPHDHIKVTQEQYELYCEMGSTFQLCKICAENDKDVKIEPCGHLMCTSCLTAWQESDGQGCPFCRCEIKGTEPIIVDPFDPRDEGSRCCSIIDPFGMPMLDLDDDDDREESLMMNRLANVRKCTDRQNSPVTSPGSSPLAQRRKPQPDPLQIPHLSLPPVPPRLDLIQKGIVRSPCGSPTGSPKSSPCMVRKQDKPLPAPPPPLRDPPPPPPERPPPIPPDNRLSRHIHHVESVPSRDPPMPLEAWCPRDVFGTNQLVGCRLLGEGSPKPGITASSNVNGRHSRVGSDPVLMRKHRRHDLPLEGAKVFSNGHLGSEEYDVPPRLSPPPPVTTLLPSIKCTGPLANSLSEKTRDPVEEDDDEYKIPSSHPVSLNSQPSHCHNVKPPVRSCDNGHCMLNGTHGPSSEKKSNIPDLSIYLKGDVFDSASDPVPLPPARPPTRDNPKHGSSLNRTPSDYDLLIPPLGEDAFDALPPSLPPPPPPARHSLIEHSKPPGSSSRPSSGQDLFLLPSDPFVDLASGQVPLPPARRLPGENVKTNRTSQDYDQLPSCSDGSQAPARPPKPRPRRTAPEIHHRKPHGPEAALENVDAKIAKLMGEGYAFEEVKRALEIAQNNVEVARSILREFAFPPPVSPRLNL

SMILES | pIC50 [1] | fold change (FC) [2] | fold change (FC) [3] | fold change (FC) [4] | fold change (FC) [5] | fold change (FC) [6] | fold change (FC) [7] | fold change (FC) [8] | fold change (FC) [9] | fold change (FC) [10] | fold change (FC) [11] | fold change (FC) [12] | fold change (FC) [13] | fold change (FC) [14] | fold change (FC) [15] | fold change (FC) [16] | fold change (FC) [17] | fold change (FC) [18] | fold change (FC) [19] | fold change (FC) [25] | also measured
Cn1cnnc1C(F)(F)[C@](C)(F)c1cccc(N2Cc3c(cc(C(=O)N4CC[C@H](O)C4)cc3C(F)(F)F)C2=O)c1 | > 7.00 | 2.51 | 1.201 | 1.201 | >4 | <=2 | 1.51 | 2.01 | <=1.5 | 1.51 | 2.01 | <=1.4 | <=2.5 | 1.01 | <=1 | <=1 | 1.01 | 1.01 | 1.01 | 1.01 | fold change (FC) [20]: 1.01; fold change (FC) [21]: 1.01; fold change (FC) [22]: <=1; fold change (FC) [23]: <=1; fold change (FC) [24]: <=1
C[C@H](Cc1nncn1C)c1cccc(N2Cc3c(cc(CN4CC[C@H](F)C4)cc3C(F)(F)F)C2=O)c1 | > 7.00 | >=7.5 | >1.601 | 1.201 | >4 | >4 | >4 | 2.01 | 2.01 | 1.51 | 2.01 | >1.61 | >4.01 | >=5 | 2.01 | 2.01 | >=5 | 2.01 | 2.01 | >=5 | pKd [26]: > 7.00; fold change (FC) [20]: 2.01; fold change (FC) [21]: 1.01; fold change (FC) [22]: 1.01; fold change (FC) [23]: 1.01; fold change (FC) [24]: 1.01
Cn1cnnc1CC1(c2cccc(N3Cc4c(cc(CN5CCC6(CC6)C5)cc4C(F)(F)F)C3=O)c2)COC1 | > 7.00 | >=7.5 | >1.601 | 1.201 | >4 | >4 | >4 | >4 | 2.01 | 2.01 | 2.01 | >1.61 | <=2.5 | – | – | – | – | – | >=5 | >=5 | fold change (FC) [27]: 1; fold change (FC) [28]: 1; fold change (FC) [29]: 1.51; fold change (FC) [30]: 2.01; fold change (FC) [31]: 1; fold change (FC) [32]: 1; fold change (FC) [33]: 1; fold change (FC) [34]: 1
Cc1cc(C(=O)Nc2cccc([C@H](C)Cc3nncn3C)c2)nc(C2CC2)n1 | > 7.00 | >=7.5 | <=1.2 | 1.201 | >4 | <=2 | >4 | >4 | 2.01 | 1.51 | 1.51 | >1.61 | <=2.5 | >=5 | 2.01 | 2.01 | >=5 | 2.01 | 2.01 | 2.01 | pKd [26]: > 7.00; fold change (FC) [28]: 1; fold change (FC) [29]: 1; fold change (FC) [30]: 1.51; fold change (FC) [31]: 1; fold change (FC) [33]: 1; fold change (FC) [34]: 1; fold change (FC) [20]: 2.01; fold change (FC) [21]: 2.01; fold change (FC) [22]: 2.01; fold change (FC) [23]: 2.01; fold change (FC) [24]: 1.01
